Experimental data from article PMC4310350 (Drug Design, Development and Therapy, 2015).
“Also recorded” adds a separate entry of the source.

How the values were obtained:
OCT1 = target: T1, OCT1 (Homo sapiens, UniProt O15245); test: Uptake in HEK293 cells overexpressing OCT1; format: in vitro ADME; conditions: probe substrate, functionality check of OCT1
T1 sequence (O15245 1-554): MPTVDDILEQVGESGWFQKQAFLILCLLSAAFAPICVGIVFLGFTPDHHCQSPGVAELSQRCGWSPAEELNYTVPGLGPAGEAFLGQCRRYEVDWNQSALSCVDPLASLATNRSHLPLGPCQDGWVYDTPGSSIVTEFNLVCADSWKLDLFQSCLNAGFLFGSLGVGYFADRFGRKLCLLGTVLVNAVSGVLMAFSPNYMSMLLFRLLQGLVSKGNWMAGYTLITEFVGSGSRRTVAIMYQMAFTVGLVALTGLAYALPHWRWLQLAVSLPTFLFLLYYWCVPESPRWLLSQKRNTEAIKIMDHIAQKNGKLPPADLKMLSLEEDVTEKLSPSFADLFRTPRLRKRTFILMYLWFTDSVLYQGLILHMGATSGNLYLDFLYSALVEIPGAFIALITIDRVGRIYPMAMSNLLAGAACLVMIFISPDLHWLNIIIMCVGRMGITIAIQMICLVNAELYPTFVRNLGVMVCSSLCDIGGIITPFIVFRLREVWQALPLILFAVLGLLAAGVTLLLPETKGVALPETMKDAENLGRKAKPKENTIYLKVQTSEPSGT

OCT2 = target: T2, OCT2 (Homo sapiens, UniProt O15244); test: Uptake in HEK293 cells overexpressing OCT2; format: in vitro ADME; conditions: probe substrate, functionality check of OCT2
T2 sequence (O15244 1-555): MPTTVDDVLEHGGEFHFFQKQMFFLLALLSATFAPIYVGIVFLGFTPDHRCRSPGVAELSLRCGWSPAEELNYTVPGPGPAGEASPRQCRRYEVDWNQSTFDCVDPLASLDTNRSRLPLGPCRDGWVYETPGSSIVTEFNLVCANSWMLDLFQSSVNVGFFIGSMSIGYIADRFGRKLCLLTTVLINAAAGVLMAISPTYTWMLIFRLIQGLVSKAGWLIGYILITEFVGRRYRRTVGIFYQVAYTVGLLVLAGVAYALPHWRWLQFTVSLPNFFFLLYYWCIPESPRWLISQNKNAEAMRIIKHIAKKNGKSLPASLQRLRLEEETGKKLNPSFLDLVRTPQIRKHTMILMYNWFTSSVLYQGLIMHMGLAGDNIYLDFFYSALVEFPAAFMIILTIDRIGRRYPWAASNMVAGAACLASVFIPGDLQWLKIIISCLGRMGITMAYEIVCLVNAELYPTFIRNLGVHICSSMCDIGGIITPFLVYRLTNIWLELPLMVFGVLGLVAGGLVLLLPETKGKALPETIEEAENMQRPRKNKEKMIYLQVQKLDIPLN

OATP1B3 [1] = target: T3, OATP1B3 (Homo sapiens, UniProt Q9NPD5); format: in vitro ADME; conditions: 10 μM catalposide, HEK293-OATP1B3
T3 sequence (Q9NPD5 1-702): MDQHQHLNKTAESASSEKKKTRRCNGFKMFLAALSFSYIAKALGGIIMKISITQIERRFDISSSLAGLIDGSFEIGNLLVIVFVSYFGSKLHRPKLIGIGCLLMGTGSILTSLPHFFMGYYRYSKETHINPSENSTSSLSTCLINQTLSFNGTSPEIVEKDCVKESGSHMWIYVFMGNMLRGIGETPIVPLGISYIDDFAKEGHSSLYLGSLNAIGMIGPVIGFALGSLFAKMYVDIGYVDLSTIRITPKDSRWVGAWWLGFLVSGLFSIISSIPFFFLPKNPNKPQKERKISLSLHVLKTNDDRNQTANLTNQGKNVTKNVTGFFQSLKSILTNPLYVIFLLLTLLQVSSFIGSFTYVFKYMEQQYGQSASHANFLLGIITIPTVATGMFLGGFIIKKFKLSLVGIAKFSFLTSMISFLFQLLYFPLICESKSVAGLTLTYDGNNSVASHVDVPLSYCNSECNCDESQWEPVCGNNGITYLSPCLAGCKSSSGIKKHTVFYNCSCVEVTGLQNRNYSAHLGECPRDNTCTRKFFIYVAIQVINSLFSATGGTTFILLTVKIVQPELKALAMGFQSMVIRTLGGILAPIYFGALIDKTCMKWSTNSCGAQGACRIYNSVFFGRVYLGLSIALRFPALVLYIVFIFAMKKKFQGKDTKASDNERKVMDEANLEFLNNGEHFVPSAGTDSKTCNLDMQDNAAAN

OATP1B1 [2] = target: T4, OATP1B1 (Homo sapiens, UniProt Q9Y6L6); conditions: 10 μM catalposide, HEK293-OATP1B1
T4 sequence (Q9Y6L6 1-691): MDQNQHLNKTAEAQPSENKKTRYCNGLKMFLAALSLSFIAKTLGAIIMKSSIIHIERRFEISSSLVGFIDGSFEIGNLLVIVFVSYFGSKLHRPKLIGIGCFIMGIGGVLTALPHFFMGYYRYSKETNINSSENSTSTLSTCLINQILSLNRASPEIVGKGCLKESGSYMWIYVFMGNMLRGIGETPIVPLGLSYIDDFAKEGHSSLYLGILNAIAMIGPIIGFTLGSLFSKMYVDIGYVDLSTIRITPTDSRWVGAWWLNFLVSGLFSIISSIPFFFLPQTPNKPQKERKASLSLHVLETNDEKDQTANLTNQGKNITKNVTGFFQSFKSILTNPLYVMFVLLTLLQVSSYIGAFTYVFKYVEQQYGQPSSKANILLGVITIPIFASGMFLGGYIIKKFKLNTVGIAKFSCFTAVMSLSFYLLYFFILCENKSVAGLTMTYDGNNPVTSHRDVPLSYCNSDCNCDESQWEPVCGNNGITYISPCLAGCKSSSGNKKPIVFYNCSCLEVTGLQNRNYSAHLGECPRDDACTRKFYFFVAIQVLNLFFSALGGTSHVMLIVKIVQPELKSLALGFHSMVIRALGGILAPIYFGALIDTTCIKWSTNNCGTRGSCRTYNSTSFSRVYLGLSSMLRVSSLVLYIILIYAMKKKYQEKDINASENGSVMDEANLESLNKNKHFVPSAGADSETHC

OATP1B3 [3] = target: T3, OATP1B3; conditions: read-out: IC50 as inhibitor of OATP1B3; cited from earlier work
OATP1B3 [4] = target: T3, OATP1B3; test: Uptake in HEK293 cells overexpressing OATP1B3; format: in vitro ADME; conditions: probe substrate, functionality check of OATP1B3
P-gp = P-gp (Homo sapiens, UniProt P08183); test: A-to-B and B-to-A transport in LLC-PK1 cells overexpressing P-gp; format: in vitro ADME; conditions: pig, LLC-PK1, Net efflux ratio, probe substrate, LLC-PK1-MDR1 compared with LLC-PK1-mock cells
Sequence of P-gp (P08183 whole entry): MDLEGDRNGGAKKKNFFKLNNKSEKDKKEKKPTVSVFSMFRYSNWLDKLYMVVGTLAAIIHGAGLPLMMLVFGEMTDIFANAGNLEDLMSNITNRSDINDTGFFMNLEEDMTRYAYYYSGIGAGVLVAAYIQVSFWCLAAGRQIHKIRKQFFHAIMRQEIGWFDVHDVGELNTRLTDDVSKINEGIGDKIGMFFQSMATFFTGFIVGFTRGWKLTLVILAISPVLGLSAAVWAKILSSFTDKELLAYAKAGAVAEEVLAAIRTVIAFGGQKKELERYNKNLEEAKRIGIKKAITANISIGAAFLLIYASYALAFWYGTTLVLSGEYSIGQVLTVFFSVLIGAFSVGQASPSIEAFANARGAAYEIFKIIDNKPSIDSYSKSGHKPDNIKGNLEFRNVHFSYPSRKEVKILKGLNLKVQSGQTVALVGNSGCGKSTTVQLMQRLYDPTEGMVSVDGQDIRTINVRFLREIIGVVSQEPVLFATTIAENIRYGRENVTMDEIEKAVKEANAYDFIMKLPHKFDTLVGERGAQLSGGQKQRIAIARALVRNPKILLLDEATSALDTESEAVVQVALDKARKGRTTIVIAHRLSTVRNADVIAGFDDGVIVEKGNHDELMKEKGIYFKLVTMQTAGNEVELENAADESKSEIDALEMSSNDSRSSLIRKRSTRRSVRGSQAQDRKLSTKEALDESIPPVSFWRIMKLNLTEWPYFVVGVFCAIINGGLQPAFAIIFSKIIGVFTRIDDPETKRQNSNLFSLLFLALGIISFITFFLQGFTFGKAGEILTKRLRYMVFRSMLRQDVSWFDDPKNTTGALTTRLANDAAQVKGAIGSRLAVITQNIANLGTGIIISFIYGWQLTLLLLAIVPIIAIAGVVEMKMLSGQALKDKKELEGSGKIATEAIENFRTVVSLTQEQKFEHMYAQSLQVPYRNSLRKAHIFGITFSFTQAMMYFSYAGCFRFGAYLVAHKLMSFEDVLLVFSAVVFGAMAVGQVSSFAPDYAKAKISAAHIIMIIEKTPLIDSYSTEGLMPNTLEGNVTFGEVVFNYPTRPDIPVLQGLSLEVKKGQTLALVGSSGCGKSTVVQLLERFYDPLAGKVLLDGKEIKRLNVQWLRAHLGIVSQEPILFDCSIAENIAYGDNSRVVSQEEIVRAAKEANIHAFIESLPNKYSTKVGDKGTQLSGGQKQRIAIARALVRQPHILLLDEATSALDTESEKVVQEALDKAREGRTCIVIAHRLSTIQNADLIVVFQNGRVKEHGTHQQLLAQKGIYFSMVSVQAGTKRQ

OAT3 = target: T5, OAT3 (Homo sapiens, UniProt Q8TCC7); test: Uptake in HEK293 cells overexpressing OAT3; format: in vitro ADME; conditions: probe substrate, functionality check of OAT3
T5 sequence (Q8TCC7 1-542): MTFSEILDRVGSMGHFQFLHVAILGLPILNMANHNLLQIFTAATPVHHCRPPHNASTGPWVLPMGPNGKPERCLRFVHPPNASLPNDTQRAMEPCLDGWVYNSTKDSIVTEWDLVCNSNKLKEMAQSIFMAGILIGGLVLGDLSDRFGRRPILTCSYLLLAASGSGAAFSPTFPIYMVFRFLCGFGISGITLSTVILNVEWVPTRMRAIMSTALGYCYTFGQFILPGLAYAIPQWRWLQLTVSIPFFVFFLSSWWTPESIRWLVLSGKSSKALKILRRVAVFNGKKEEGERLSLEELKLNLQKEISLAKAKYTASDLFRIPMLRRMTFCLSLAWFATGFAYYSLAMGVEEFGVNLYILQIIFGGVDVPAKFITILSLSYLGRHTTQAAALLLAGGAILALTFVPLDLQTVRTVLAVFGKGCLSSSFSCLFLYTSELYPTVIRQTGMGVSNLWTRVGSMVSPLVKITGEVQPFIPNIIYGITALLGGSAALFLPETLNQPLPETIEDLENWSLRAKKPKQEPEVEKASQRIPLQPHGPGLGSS

OATP1B1 [5] = target: T4, OATP1B1; test: Uptake in HEK293 cells overexpressing OATP1B1; format: in vitro ADME; conditions: probe substrate, functionality check of OATP1B1
BCRP = target: T6, BCRP (Homo sapiens, UniProt Q9UNQ0); test: A-to-B and B-to-A transport in LLC-PK1 cells overexpressing BCRP; format: in vitro ADME; conditions: probe substrate, LLC-PK1-BCRP compared with LLC-PK1-mock cells
T6 sequence (Q9UNQ0 1-655): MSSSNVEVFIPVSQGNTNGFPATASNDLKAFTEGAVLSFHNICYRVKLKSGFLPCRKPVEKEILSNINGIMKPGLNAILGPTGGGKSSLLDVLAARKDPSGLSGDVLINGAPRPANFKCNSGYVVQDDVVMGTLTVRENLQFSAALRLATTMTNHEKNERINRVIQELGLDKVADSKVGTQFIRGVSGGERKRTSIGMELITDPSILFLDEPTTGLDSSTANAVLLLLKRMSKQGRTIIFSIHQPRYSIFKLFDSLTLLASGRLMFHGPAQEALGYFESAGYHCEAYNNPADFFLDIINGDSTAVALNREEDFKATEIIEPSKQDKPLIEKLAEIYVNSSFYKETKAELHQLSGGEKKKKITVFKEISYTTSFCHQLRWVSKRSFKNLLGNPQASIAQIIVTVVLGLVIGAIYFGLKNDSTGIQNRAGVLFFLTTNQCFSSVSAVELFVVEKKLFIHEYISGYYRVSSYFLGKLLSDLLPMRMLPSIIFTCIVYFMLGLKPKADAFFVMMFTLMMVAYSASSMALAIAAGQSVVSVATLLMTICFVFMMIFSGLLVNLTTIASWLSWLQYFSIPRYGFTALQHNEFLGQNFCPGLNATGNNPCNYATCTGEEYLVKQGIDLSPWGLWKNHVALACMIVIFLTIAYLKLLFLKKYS

[6] = substrate: O=C(O[C@H]1[C@@H]2C=CO[C@@H](O[C@@H]3O[C@H](CO)[C@@H](O)[C@H](O)[C@H]3O)[C@@H]2[C@@]2(CO)O[C@@H]12)c1ccc(O)cc1; test: Uptake in HEK293 cells overexpressing OATP1B1; format: in vitro ADME; conditions: other: OATP1B1-mediated uptake, 2–500 μM catalposide, 5 minutes; 37.0 °C

C[n+]1ccc(-c2ccccc2)cc1 [MPP^+, methyl-4-phenylpyridinium]
Fold increase in uptake vs HEK293 mock cells (OCT1): 13.2 fold | Fold increase in uptake vs HEK293 mock cells (OCT2): 17.8 fold

Cc1ccc(C)c(OCCCC(C)(C)C(=O)O)c1 [gemfibrozil]
Effect on OATP1B3-mediated catalposide uptake (OATP1B3 [1]): decreased to basal levels; also recorded: inhibitory effects | Effect on OATP1B1-mediated catalposide uptake (OATP1B1 [2]): decreased to basal levels; also recorded: inhibitory effects | IC50 (OATP1B3 [3]): ~200 µM

C[C@]12CC[C@@H]3c4ccc(O)cc4CC[C@H]3[C@@H]1CC[C@@H]2O[C@@H]1O[C@H](C(=O)O)[C@@H](O)[C@H](O)[C@H]1O [EG, estradiol-17β-D-glucuronide]
Fold increase in uptake vs HEK293 mock cells (OATP1B3 [4]): 15.0 fold

C[C@H]1O[C@@H](O[C@H]2[C@@H](O)C[C@H](O[C@H]3[C@@H](O)C[C@H](O[C@H]4CC[C@@]5(C)[C@H](CC[C@@H]6[C@@H]5C[C@@H](O)[C@]5(C)[C@@H](C7=CC(=O)OC7)CC[C@]65O)C4)O[C@@H]3C)O[C@@H]2C)C[C@H](O)[C@@H]1O [digoxin]
efflux ratio at 1 h (P-gp): 5.7

C[C@]12CC[C@@H]3c4ccc(OS(=O)(=O)O)cc4CC[C@H]3[C@@H]1CCC2=O [ES, estrone-3-sulfate]
Fold increase in uptake vs HEK293 mock cells (OAT3): 18.9 fold | Fold increase in uptake vs HEK293 mock cells (OATP1B1 [5]): 17.3 fold | Net efflux ratio (BCRP): 4.6

CO[C@H]1/C=C/O[C@@]2(C)Oc3c(C)c(O)c4c(O)c(c(/C=N/N5CCN(C)CC5)c(O)c4c3C2=O)NC(=O)/C(C)=C\C=C\[C@H](C)[C@H](O)[C@@H](C)[C@@H](O)[C@@H](C)[C@H](OC(C)=O)[C@@H]1C [rifampin]
Effect on OATP1B3-mediated catalposide uptake (OATP1B3 [1]): decreased to basal levels; also recorded: inhibitory effects | Effect on OATP1B1-mediated catalposide uptake (OATP1B1 [2]): decreased to basal levels; also recorded: inhibitory effects

B1: OATP1B1 (Homo sapiens) (protein)
chain: MDQNQHLNKTAEAQPSENKKTRYCNGLKMFLAALSLSFIAKTLGAIIMKSSIIHIERRFEISSSLVGFIDGSFEIGNLLVIVFVSYFGSKLHRPKLIGIGCFIMGIGGVLTALPHFFMGYYRYSKETNINSSENSTSTLSTCLINQILSLNRASPEIVGKGCLKESGSYMWIYVFMGNMLRGIGETPIVPLGLSYIDDFAKEGHSSLYLGILNAIAMIGPIIGFTLGSLFSKMYVDIGYVDLSTIRITPTDSRWVGAWWLNFLVSGLFSIISSIPFFFLPQTPNKPQKERKASLSLHVLETNDEKDQTANLTNQGKNITKNVTGFFQSFKSILTNPLYVMFVLLTLLQVSSYIGAFTYVFKYVEQQYGQPSSKANILLGVITIPIFASGMFLGGYIIKKFKLNTVGIAKFSCFTAVMSLSFYLLYFFILCENKSVAGLTMTYDGNNPVTSHRDVPLSYCNSDCNCDESQWEPVCGNNGITYISPCLAGCKSSSGNKKPIVFYNCSCLEVTGLQNRNYSAHLGECPRDDACTRKFYFFVAIQVLNLFFSALGGTSHVMLIVKIVQPELKSLALGFHSMVIRALGGILAPIYFGALIDTTCIKWSTNNCGTRGSCRTYNSTSFSRVYLGLSSMLRVSSLVLYIILIYAMKKKYQEKDINASENGSVMDEANLESLNKNKHFVPSAGADSETHC
Km [6]: 220.5 µM | Vmax [6]: 7.7 pmol/min
